Data set [1] concerns the target T1, α1b (Hamster) adrenoreceptor (Mesocricetus auratus, UniProt P18841).
T1 sequence (P18841 1-515): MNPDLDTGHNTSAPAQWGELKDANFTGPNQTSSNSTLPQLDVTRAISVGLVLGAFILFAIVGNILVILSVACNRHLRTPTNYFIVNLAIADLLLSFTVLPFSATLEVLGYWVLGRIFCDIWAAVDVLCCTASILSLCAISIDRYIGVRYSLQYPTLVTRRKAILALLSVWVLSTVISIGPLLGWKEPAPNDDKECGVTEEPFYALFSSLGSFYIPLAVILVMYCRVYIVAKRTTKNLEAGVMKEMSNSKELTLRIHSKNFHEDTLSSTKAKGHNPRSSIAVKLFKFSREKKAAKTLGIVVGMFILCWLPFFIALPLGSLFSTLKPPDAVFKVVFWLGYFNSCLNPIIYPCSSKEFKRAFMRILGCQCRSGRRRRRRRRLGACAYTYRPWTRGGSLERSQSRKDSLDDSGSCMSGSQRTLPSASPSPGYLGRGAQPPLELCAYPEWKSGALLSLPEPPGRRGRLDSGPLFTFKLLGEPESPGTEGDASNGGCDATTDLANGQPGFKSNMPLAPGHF
The data set can be described thus: [3H]-prazosin radioligand binding, cloned α1b (hamster) adrenoreceptor in LTK cells. Conditions: cloned receptor in LTK cell membranes, [3H]prazosin 0.2 nM. The source says: (§1) The cDNA clones encoding the α1, adrenoreceptors were obtained from TULCO (Triangle Universities Licensing Consortium, Research Triangle Park, N.C.) and inserted into the eukaryotic expression vector SnaB30. In this vector, expression of the adrenoreceptor gene is under the transcriptional control of an SV40 early promoter. Positive drug selection is provided by a neomycin-resistance gene. Mouse fibroblast cells (LTK) were transfected with the α1 expression plasmids and grown in Dulbecco's modified Eagle's medium (DMEM) containing 10% fetal calf serum and 30 μM G418. […] Stable single cell clones derived from the parental lines were screened in adrenoreceptor binding assays to identify clones having high adrenoreceptor density. Roller bottle cultures of the cloned lines were used to provide cell membranes for subsequent adrenoreceptor binding characterization studies. A cell line containing the SnaB30 vector expressing the human erythropoietin gene served as a negative control.
(§2) For adrenoreceptor binding assays, large scale membrane preparations were utilized in which 6 million cells were seeded into small (450 cm^2) Coming tissue culture roller bottles. DMEM (200 mL) containing 10% fetal calf serum and 300 μM G418 were added to each roller bottle. A 95% air/5% CO2 gas mixture (sterile) was injected into each roller bottle prior to sealing, and the bottles were then incubated at 37° C. on a roller rack for 5 days. Cells were refed with fresh medium after 3 days in culture.
(§3) On the fifth day of culture, growth medium was removed from cells grown in roller bottles, and the cells were washed twice with PBS (Sigma, 120 mM NaCl, 2.7 mM KCl, 10 mM Na2HPO4-NaH2PO4, pH=7.4). Cells were detached from the roller bottles by incubating for 15 minutes at 37° C. in a Tris-EDTA solution (10 mM Tris, 100 mM NaCl, 1 mM EDTA, pH=7.4). The cell suspension from each roller bottle was decanted into tared centrifuge tubes and kept on ice. An aliquot of each cell suspension was generally taken for cell counting. Cells were centrifuged at 3000×G for 5 minutes at 2-4° C., washed with PBS and recentrifuged. The supernatant was decanted, and the pellet was weighed to determine the wet weight of cells. Cells were washed a final time in 40 vol 5 mM Tris-HCl, 5 mM EDTA, pH=7.7 and centrifuged at 40,000×G for 10 minutes (“vol” indicates volume/weight, e.g., a “vol” of 40 would indicate that the one gram of cells were washed with 40 mls of buffer). Cells were homogenized in of 50 mM Tris-HCl, 5 mM EDTA (pH=7.4) (10 mL) and diluted to 40 mL/tube. Homogenates were centrifuged at 40,000×G for 10 minutes. The supernatant was decanted and the pellets rehomogenized in 50 mM Tris-HCl (pH=7.4) and centrifuged as before.
(§4) Following equilibration, bound radioligand was separated from free on GF/B filters (presoaked in 0.5% polyethyleneimine) using ither a Brandel or Packard cell harvester. Radioactivity was determined by standard liquid scintillation techniques.

The target in a further data set is T2, α1a (rat) adrenoreceptor (Rattus norvegicus, UniProt P43140).
T2 sequence (P43140 1-466): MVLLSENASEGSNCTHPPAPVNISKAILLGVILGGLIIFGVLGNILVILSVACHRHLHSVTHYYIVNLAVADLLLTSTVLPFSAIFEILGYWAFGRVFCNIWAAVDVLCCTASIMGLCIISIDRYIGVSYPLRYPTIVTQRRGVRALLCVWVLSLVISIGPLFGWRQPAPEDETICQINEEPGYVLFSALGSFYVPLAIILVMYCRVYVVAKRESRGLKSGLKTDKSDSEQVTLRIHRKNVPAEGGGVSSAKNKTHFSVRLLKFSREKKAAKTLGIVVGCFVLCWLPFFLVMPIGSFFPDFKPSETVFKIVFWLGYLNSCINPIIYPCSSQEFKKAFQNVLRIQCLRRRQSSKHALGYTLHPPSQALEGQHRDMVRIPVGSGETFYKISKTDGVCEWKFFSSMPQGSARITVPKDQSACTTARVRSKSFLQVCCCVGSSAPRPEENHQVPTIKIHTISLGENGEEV
The experiment in a line: [3H]-prazosin radioligand binding, cloned α1a (rat) adrenoreceptor in LTK cells. The settings on record: cloned receptor in LTK cell membranes, [3H]prazosin 0.2 nM.
From the text: as §1, §2, §3, §4

We go through 13 molecules from US6376488B1, “Benzoxazine α-1 adrenergic compounds” (Abbott Laboratories, priority 2000, dated 2002).

Structures can show the parent of a compound that is named as a salt.

For orientation: Ki means a dissociation constant, usually derived from enzyme kinetics or from competition with a known ligand. Broadly, the melting point is the temperature of the solid-liquid transition.

Regarding `Cl.Cl.O=c1[nH]c2c(sc3cccnc32)c(=O)n1CCCCN1CCN2c3ccccc3OCC2C1` (single isomer, unassigned; (+)) [Example 3, (+) 3-[4-(1,2,4a,5-tetrahydropyrazino[2,1-c][1,4]benzoxazin-3(4H)-yl)butyl]pyrido[2′, 3′:4,5]thieno[3,2-d]pyrimidine-2,4(1H,3H)-dione dihydrochloride], the melting point was in the range of 278 to 280 °C. In addition, the Ki in data set [1] came out at 32.4 nM. In addition, at α1a (rat) adrenoreceptor, the Ki was determined as 2.85 nM.
Take `COc1cccc2c1N1CCN(CCCCn3c(=O)[nH]c4c(sc5cccnc54)c3=O)CC1CO2` (single isomer, unassigned; (+)) [Example 14, (+) 3-[4-(10-methoxy-1,2,4a,5-tetrahydropyrazino[2,1-c][1,4]benzoxazin-3(4H)-yl)butyl]pyido [2′,3′:4,5]thieno[3,2-d]pyrimidine-2,4(1H,3H)-dione trihydrochloride]: the Ki in data set [1] is 8.32 nM; on α1a (rat) adrenoreceptor it was 0.29 nM.
On to `Cl.Cl.O=c1[nH]c2c(sc3ncccc32)c(=O)n1CCCCN1CCN2c3ccccc3OCC2C1` (single isomer, unassigned; (+)) [Example 5, (+) 3-[4-(1,2,4a,5-tetrahydropyrazino[2,1-c][1,4]benzoxazin-3(4H)-yl)butyl]pyrido[3′, 2′:4,5]thieno[3,2-d]pyrimidine-2,4(1H,3H)-dione dihydrochloride], for which the melting point was in the range of 288 to 291 °C. Further, the Ki in data set [1] stood at 40.6 nM. Further, the inhibition constant Ki at α1a (rat) adrenoreceptor amounted to 5.02 nM.
`Cl.Cl.O=c1[nH]c2c(sc3ncccc32)c(=O)n1CCCCN1CCN2c3ccccc3OCC2C1` (single isomer, unassigned; (-)) [Example 6, (−) 3-[4-(1,2,4a,5-tetrahydropyrazino[2,1-c][1,4]benzoxazin-3(4H)-yl)butyl]pyrido[3′, 2′:4,5]thieno[3,2-d]pyrimidine-2,4(1H,3H)-dione dihydrochloride] registered a melting point of 290 to 293 °C. The molecule also displayed a Ki in data set [1] of 27.3 nM. On α1a (rat) adrenoreceptor, the affinity corresponds to a Ki of 9.83 nM.
`COc1cccc2c1N1CCN(CCCn3c(=O)[nH]c4c(sc5cccnc54)c3=O)CC1CO2.Cl.Cl.Cl` (single isomer, unassigned; (-)) [Example 9, (−) 3-[3-(10-methoxy-1,2,4a,5-tetrahydropyrazino[2,1-c][1,4]benzoxazin-3(4H)-yl)propyl]pyrido[2′,3′:4,5]thieno[3,2-d]pyrimidine-2,4(1H, 3H)-dione trihydrochloride] registered a melting point of 215 to 220 °C. Affinity in data set [1] was put at a Ki of 3.86 nM. On α1a (rat) adrenoreceptor, this molecule had a Ki of 0.359 nM.
As to `O=c1[nH]c2c(sc3cccnc32)c(=O)n1CCCCN1CCN2c3ccccc3OCC2C1` (single isomer, unassigned; (-)) [Example 4, (−) 3-[4-(1.2,4a,5-tetrahydropyrazino[2,1-c][1,4benzoxazin-3(4H)-yl)butyl]pyrido[2′,3′:4,5]thieno[3,2-d]pyrimidine-2,4(1H,3H)-dione dihydrochloride], the inhibition constant Ki in data set [1] is 26.5 nM; on α1a (rat) adrenoreceptor, 6.62 nM.
As for `COc1cccc2c1N1CCN(CCCCn3c(=O)[nH]c4c(sc5ncccc54)c3=O)CC1CO2.Cl.Cl.Cl` (single isomer, unassigned; (+)) [Example 15, (+) 3-[4-(10-methoxy-1,2,4a,5-tetrahydropyrazino[2,1-c][1,4]benzoxazin-3(4H)-yl)butyl]pyrido[3′,2′:4,5]thieno[3,2-d]pyrimidine-2,4(1H,3H)-dione trihydrochloride], the melting point lay within 225 to 230 °C. In data set [1], this molecule gave an inhibitory constant (Ki) of 13.8 nM. At α1a (rat) adrenoreceptor, this molecule gave a Ki of 0.447 nM.
The molecule `COc1cccc2c1N1CCN(CCCn3c(=O)[nH]c4c(sc5cccnc54)c3=O)CC1CO2.Cl.Cl.Cl` (single isomer, unassigned; (+)) [Example 17, (+) 3-[3-(10-methoxy-1,2,4a,5-tetrahydropyrazino[2,1-c][1,4]benzoxazin-3(4H)-yl)propyl]pyrido[2′,3′:4,5]thieno[3,2-d]pyrimidine-2,4(1H,3H)-dione trihydrochloride] yielded a melting point of 219 to 224 °C. The same molecule yielded an inhibition constant (Ki) in data set [1] of 40.4 nM. The molecule also returned a Ki at α1a (rat) adrenoreceptor of 4.44 nM.
With `COc1cccc2c1N1CCN(CCn3c(=O)[nH]c4c(sc5ncc(Cl)nc54)c3=O)CC1CO2.Cl.Cl` (single isomer, unassigned; (+)) [Example 8, (+) 3-[2-(10-methoxy-1,2,4a,5-tetrahydropyrazino[2,1-c][1,4]benzoxazin-3(4H)-yl)ethyl]-8-chloropyrazino[2′,3′:4,5]thieno[3,2-d]pyrimidine-2,4(1H,3H)-dione dihydrochloride], the melting point lay within 280 to 283 °C. Further, the inhibition constant (Ki) in data set [1] worked out at 58.1 nM. For the same molecule, the Ki at α1a (rat) adrenoreceptor amounted to 1.78 nM.
For `COc1cccc2c1N1CCN(CCn3c(=O)[nH]c4c(sc5cccnc54)c3=O)CC1CO2.Cl.Cl.Cl` (single isomer, unassigned; (+)) [Example 16, (+) 3-[2-(10-methoxy-1,2,4a,5-tetrahydropyrazino[2,1-c][1,4]benzoxazin-3(4H)-yl)ethyl]pyrido[2′,3′:4,5]thieno[3,2-d]pyrimidine-2,4(1H,3H)-dione trihydrochloride], in that order: 301 to 302 °C, 11.8 nM and 1.24 nM.
In the case of `O=c1[nH]c2c(sc3cccnc32)c(=O)n1CCCN1CCN2c3ccccc3OCC2C1` (single isomer, unassigned; (-)) [Example 2, (−) 3-[3-(1,2,4a,5-tetrahydropyrazino[2,1-c][1,4]benzoxazin-3(4H)-yl)propyl]pyrido[2′,3′:4,5]thieno[3,2-d]pyrimidine-2,4(1H,3H)-dione dihydrochloride], the figures for the Ki (in data set [1]; at α1a (rat) adrenoreceptor) were 24.6 nM and 19.3 nM, respectively.
Regarding `COc1cccc2c1N1CCN(CCCCn3c(=O)[nH]c4c(sc5ncccc54)c3=O)CC1CO2` (single isomer, unassigned; (-)) [Example 11, (−) 3-[4-(10-methoxy-1,2,4a,5-tetrahydropyrazino[2,1-c][1,4]benzoxazin-3(4H)-yl)butyl]pyrido[3′,2′:4.5]thieno[3,2-d]pyrimidine-2,4(1H,3H)-dione trihydrochloride], the Ki stood at 2.71 nM in data set [1] and 0.24 nM on α1a (rat) adrenoreceptor.
With “(−) 3-[3-(10-methoxy-1,2,4a,5-tetrahydropyrazino[2,1-c][1,4]benzoxazin-3(4H)-yl)butyl]pyrido[2′,3′:4,5]thieno[3,2-d]pyrimidine-2,4(1H,3H)-dione trihydrochloride [Example 10]”, the Ki in data set [1] is 1.81 nM; on α1a (rat) adrenoreceptor, 0.257 nM.
